Patent US6475491B1, “Treatment of HIV and other viral infections using combinatorial therapy” (priority 1995, dated 2002)
≈ marks a conversion by molar mass, not a printed value. Entries after “also recorded” stand apart in the source; their conditions may differ. Read-outs that look alike come from different tables or passages of the source.

Tests used:
[1] = system: CEM cells; test: Cell proliferation and toxicity assay; format: cell-based
Description: (§1) Cell proliferation and toxicity assay: Approximately 3.8×10^5 CEM cells for each peptide concentration were incubated for 3 days at 37° C. in T25 flasks. […] The concentrations of each peptide used were 0, 2.5, 10, and 40 μg/ml. Cell counts were taken at incubation times of 0, 24, 48, and 72 hours.
(§2) Additionally, cells were incubated in the absence of either peptide.

[2] = Cell proliferation and toxicity assay; format: cell-based; conditions: human, CEM cells
Description: as §1, §2

[3] = Toxicity in in vitro studies and in animals
Text: The present invention provides the first reported use of such peptides in combination with another antiviral or any other therapeutic agent.

[4] = system: HIV-1/IIIb; format: cell-based; conditions: 5 h
Text: Anti-HIV assays: The antiviral assays performed were as those described, above, in Section 6.1. Assays utilized HIV-1/IIIb and/or HIV-2 NIHZ isolates. Purified peptides were used, unless otherwise noted in FIGS. 5A-5L.

[5] = system: HIV-1IIIb
Description: (§6) The results of these assays are analyzed using Chou and Talalay's combination method (Chou and Talalay, 1984, Adv. Enzyme Regul. 22:27-55) and ‘Dose-Effect Analysis with Microcomputers’ software (Chou and Chou, 1987, software and manual. p19-64. Elsevier Biosoft, Cambridge, UK) in order to obtain a Combination Index. Combination Index values <1 indicates synergy, values>1 indicate antagonism and values equal to 1 indicate additive effects.
(§7) For this assay, 3×10^4 uninfected Molt4 cells are cocultivated with 3×10^3 H9/ LA1 or CEM/LA1 chronically infected cells per well in 24 well plates. Inhibitors are added on day 0, and the assay plates are re-fed on days 1 and 3 with growth medium containing the inhibitors. The assay is harvested on day 5. Antiviral activity is measured by several parameters: Western blot analysis of pelleted cells from treated cultures, RT levels, and p24 antigen levels in the supernatant.
(§8) The combined drug effects are calculated by the multiple drug analysis method of Chou and Talalay (Chou and Talalay, 1984, Adv. Enzyme Regul. 22:27-55) and ‘Dose-Effect Analysis with Microcomputers’ software (Chou and Chou, 1987, software and manual. p19-64. Elsevier Biosoft, Cambridge, UK) using the equation: [formula]
(§9) where CI is the combination index, (Dx)1 is the dose of drug 1 required to produce x percent effect alone, (D)1 is the dose of drug 1 required to produce the same x percent effect in combination with (D)2. The values of (Dx)2 and (D)2 are similarly derived from drug 2. The value of α is determined from the plot of the dose effect curve using the median effect equation:
(§10) where fa is the fraction affected by dose D, fu is the uninfected fraction, Dm is the dose required for 50% effect and m is the slope of the dose-effect curve. […] If the agents are mutually exclusive α is 0. and if they are mutually nonexclusive, α is 1. […] CI values of <1 indicate synergy, values>1 indicate antagonism and values equal to 1 indicate additive effects.

[6] = system: HIV-1LA1; test: Cell fusion assay: syncytia formation, uninfected Molt4 cells co-cultivated with chronically HIV-1 infected CEM cells; format: cell-based
Description: A cell fusion assay may be utilized to test the peptides' ability to inhibit HIV-induced syncytia formation in vitro. Such an assay may comprise culturing uninfected CD-4^+ cells (such as Molt or CEM cells, for example) in the presence of chronically HIV-infected cells and a therapeutic agent to be assayed. For each combinational therapy, a range of concentrations may be tested. […] Standard conditions for culturing, well known to those of ordinary skill in the art, are used. After incubation for an appropriate period (24 hours at 37° C., for example) the culture is examined microscopically for the presence of multinucleated giant cells, which are indicative of cell fusion and syncytia formation.
Approximately 7×10^4 Molt cells were incubated with 1×10^4CEM cells chronically infected with the HIV-1LA1 virus in 96-well plates (one-half area cluster plates; Costar, Cambridge, Mass.) in a final volume of 100 μl culture medium as previously described (Matthews, T. J. et al., 1987, Proc. Natl. Acad. Sci. USA 84: 5424-5428). Peptide inhibitors were added in a volume of 10 μl and the cell mixtures were incubated for 24 hr. at 37° C. At that time, multinucleated giant cells were estimated by microscopic examination at a 40×magnification which allowed visualization of the entire well in a single field.
The initial screen for antiviral activity assayed peptides' ability to block syncytium formation induced by overnight co-cultivation of uninfected Molt4 cells with chronically HIV-1 infected CEM cells. […] For these experiments, CEM cells chronically infected with either HIV-1LA1, HIV-1MN, HIV-1RF, or HIV-1SF2 virus were cocultivated overnight with uninfected Molt 4 cells.

[7] = system: HIV-1IIIb; test: Combination indices from in vitro HIV-1IIIb/CEM co-culture (Chou and Talalay)
Description: as §6, §7, §8, §9, §10

[8] = system: HIV-1LA1; conditions: control peptides; cited from earlier work
[9] = system: HIV-1; conditions: cited from earlier work
[10] = system: HIV-1; conditions: cited from earlier work; remark: listed apart in the source
[11] = system: HIV-2; test: Cell fusion assay: HIV-2 mediated syncytia formation; format: cell-based; conditions: comparison HIV-1 / HIV-2, same cell type
[12] = system: HIV-2NIHZ; test: Cell free virus infection assay, CEM cells, reverse transcriptase readout; format: cell-based; conditions: 25 TCID50 HIV-2NIHZ, 7 days
Description: (§3) The resulting reverse transcriptase (RT) activity in counts per minute was determined using the assay described, below, in Section 6.1.5. See, Reed, L. J. et al., 1938, Am. J. Hyg. 27: 493-497 for an explanation of TCID50 calculations.
(§4) The micro-reverse transcriptase (RT) assay was adapted from Goff et al. (Goff, S. et al., 1981, J. Virol. 38:239-248) and Willey et al. (Willey, R. et al., 1988, J. Virol. 62:139-147). Supernatants from virus/cell cultures are adjusted to 1% Triton-X100. A 10 μl sample of supernatant was added to 50 μl of RT cocktail in a 96-well U-bottom microtitre plate and the samples incubated at 37° C. for 90 min. The RT cocktail contained 75 mM KCl, 2 mM dithiothreitol, 5 mM MgCl2, 5 μg/ml poly A (Pharmacia, cat. No. 27-4110-01), 0.25 units/ml oligo dT (Pharmacia, cat. No. 27-7858-01), 0.05% NP40, 50 mM Tris-HCl, pH 7.8, 0.5 μM non-radioactive dTTP, and 10 μCi/ml ^32P-dTTP (Amersham, cat. No. PB.10167).
After the incubation period, 40 μl of reaction mixture was applied to a Schleicher and Schuell (S+S) NA45 membrane (or DE81 paper) saturated in 2×SSC buffer (0.3 M NaCl and […] sodium citrate) held in a S+S Minifold over one sheet of GB003 (S+S) filter paper, with partial vacuum applied. Each well of the minifold was washed four times with 200 μl 2×SSC, under full vacuum. […]

[13] = system: HIV-1SF2; test: Cell fusion assay: syncytia formation, Molt4 cells with chronically infected CEM cells; format: cell-based; conditions: HIV-1SF2 infected CEM cells
Text: (§5) The results of several such experiments are presented herein.

[14] = system: HIV-1RF; test: as above; format: cell-based; conditions: HIV-1RF infected CEM cells
Text: as §5

[15] = system: HIV-1MN; test: as above; format: cell-based; conditions: HIV-1MN infected CEM cells
Text: as §5

[16] = system: HIV-1LA1
Description: as §3, §4
After the incubation period, 40 μl of reaction mixture was applied to a Schleicher and Schuell (S+S) NA45 membrane (or DE81 paper) saturated in 2×SSC buffer (0.3 M NaCl and […] sodium citrate) held in a S+S Minifold over one sheet of GB003 (S+S) filter paper, with partial vacuum applied. Each well of the minifold was washed four times with 200 μl 2×SSC, under full vacuum. The membrane was removed from the minifold and washed 2 more times in a pyrex dish with an excess of 2×SSC. Finally, the membrane was drained on absorbent paper, placed on Whatman #3 paper, covered with Saran wrap, and exposed to film overnight at −70° C.
After 7 days of culture, cell-free supernatant was tested for the presence of RT activity as a measure of successful infection.

enfuvirtide
non-cytotoxic peptide concentration relative to HIV inhibitory dose [1]: greater than 3 log | concentration non-cytotoxic to cells in culture (highest tested) ([1]; CEM cells, 3 days): > 40000 ng/mL | cytotoxic effects on cells in culture ([1]; CEM cells, up to 40 μg/ml, 3 days): no cytotoxic effects | viability at 0 h, 2.5 µg/mL ([2]; 2.5 μg/ml, 0 hours): 98% | viability at 24 h, 2.5 µg/mL ([2]; 2.5 μg/ml, 24 hours): 93% | viability at 48 h, 2.5 µg/mL ([2]; 2.5 μg/ml, 48 hours): 96% | viability at 72 h, 2.5 µg/mL ([2]; 2.5 μg/ml, 72 hours): 96% | viability at 0 h, 10 µg/mL ([2]; 10 μg/ml, 0 hours): 98% | viability at 24 h, 10 µg/mL ([2]; 10 μg/ml, 24 hours): 97% | viability at 48 h, 10 µg/mL ([2]; 10 μg/ml, 48 hours): 98% | viability at 72 h, 10 µg/mL ([2]; 10 μg/ml, 72 hours): 98% | viability at 0 h, 40 µg/mL ([2]; 40 μg/ml, 0 hours): 98% | viability at 24 h, 40 µg/mL ([2]; 40 μg/ml, 24 hours): 97% | viability at 48 h, 40 µg/mL ([2]; 40 μg/ml, 48 hours): 95% | viability at 72 h, 40 µg/mL ([2]; 40 μg/ml, 72 hours): 97% | toxicity in in vitro studies and in animals [3]: non-toxic

H-YTSLIHSLIEESQNQQEK-OH [Peptide T-4]
IC50, antiviral activity [4]: > 400 µg/mL

Cc1cn([C@H]2C[C@H](N=[N+]=[N-])[C@@H](CO)O2)c(=O)[nH]c1=O [AZT, 3′-azido-2′,3′-dideoxythymidine]
EC50 [5]: 13.1 µg/mL (≈ 49.2 µM)

Ac-NNLLRAIEAQQHLLQLTVWGIKQLQARILAVERYLKDQ-NH2 [DP-107]
toxicity in in vitro studies and in animals [3]: non-toxic

DP-180: control peptide incorporating the amino acid residues of DP-178 in a scrambled sequence (SSESFTLLEQWNNWKLQLAEQWLEQINEKHYLEDIS; Human immunodeficiency virus) [reference compound]
concentration with no evidence of anti-fusogenic activity ([6]; high concentration tested): > 40 µg/mL

Nc1ccn([C@@H]2CS[C@H](CO)O2)c(=O)n1 [Peptide 3TC, reference compound]
Dm Drug #2 (dose required for 50% effect) ([7]; experiments T20:3TC 2:1, T20:Nelfinavir 5:1): 63.73 ng/mL | EC50 [5]: 0.0748 µg/mL (≈ 0.326 µM)

Cc1c(O)cccc1C(=O)N[C@@H](CSc1ccccc1)[C@H](O)CN1C[C@H]2CCCC[C@H]2C[C@H]1C(=O)NC(C)(C)C [Nelfinavir, reference compound]
EC50 ([7]; Human immunodeficiency virus 1, read-out: Dm Drug #2 (dose required for 50% effect)): 0.0609 µg/mL | EC50 [5]: 0.00927 µg/mL (≈ 0.0163 µM)

Ac-LQARILAVERYLKDQQQ-NH2 (N-terminus and C-terminus assumed) [DP-116]
activity previously shown in the cell-free virus infection assay [8]: inactive; also recorded: ineffective as a HIV inhibitor; also recorded: negative for inhibition of HIV-1 infection

CC(C)(C)NC(=O)[C@@H]1CN(Cc2cccnc2)CCN1C[C@@H](O)C[C@@H](Cc1ccccc1)C(=O)N[C@H]1c2ccccc2C[C@H]1O [Indinavir]
EC50 [5]: 0.0276 µg/mL (≈ 0.045 µM)

CC(C)c1nc(CN(C)C(=O)N[C@H](C(=O)N[C@@H](Cc2ccccc2)C[C@H](O)[C@H](Cc2ccccc2)NC(=O)OCc2cncs2)C(C)C)cs1 [ABT-538]
antiviral activity in vitro [9]: potent antiviral activity | CD4 lymphocyte counts ([10]; AIDS patients): rise substantially | plasma HIV-1 levels ([10]; AIDS patients): decrease exponentially | pharmacokinetic and safety profiles in vivo ([10]; human, in vivo): favorable pharmokinetic and safety profiles

Enfuvirtide
Dm T20 (dose required for 50% effect) ([7]; experiment T20:3TC 1:1.5): 158.87 ng/mL | Dm T20 (dose required for 50% effect) ([7]; experiment T20:3TC 2:1): 298.50 ng/mL | Dm T20 (dose required for 50% effect) ([7]; experiment T20:Indinavir 10:1): 298.50 ng/mL | Dm T20 (dose required for 50% effect) ([7]; experiment T20:Nelfinavir 1.33:1): 172.02 ng/mL | Dm T20 (dose required for 50% effect) ([7]; experiment T20:Nelfinavir 5:1): 298.50 ng/mL | Dm T20 (dose required for 50% effect) ([7]; experiment T:20:AZT 1:10): 298.50 ng/mL | concentration failing to block HIV-2 mediated syncytia formation [11]: > 10 µg/mL | IC50 for HIV-2NIHZ [12]: much higher IC50 | concentration affording complete protection against syncytium formation (lowest concentration used) [13]: ≤ 100 ng/mL | concentration affording complete protection against syncytium formation (lowest concentration used) [14]: ≤ 100 ng/mL | concentration affording complete protection against syncytium formation (lowest concentration used) [15]: ≤ 100 ng/mL | IC50, inhibition of HIV-1 infection ([16]; 62 TCID50 HIV-1LA1, CEM cells, 7 days): about 3 ng/ml | IC50, inhibition of RT production from infected cells ([16]; 247 TCID50 HIV-1LA1, CEM cells, 7 days): 0.09 µg/mL | potency as HIV-1 inhibitor relative to HIV-2 inhibitor ([16]; HIV-1LA1 vs HIV-2NIHZ, cell-free infection): two logs more potent | selectivity as inhibitor of HIV-1-mediated over HIV-2 mediated cell fusion [6]: 4 log | concentration affording complete protection against syncytium formation (lowest concentration tested) ([6]; HIVLA1 infected CEM cells, overnight co-cultivation): ≤ 12.5 ng/mL | lowest effective inhibitory concentration completely blocking virus induced syncytia formation ([6]; Molt4 + chronically infected CEM cells, 24 hr): 1 to 10 ng/mL | peptide concentration blocking HIV-1-mediated syncytia formation ([6]; comparison HIV-1 / HIV-2): below 1 ng/ml
